# From PubChem BioAssay (NCI)
#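 GI50 = concentration required for 50% inhibition of growth. At the TGI there is no net growth.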
# Legend:
# Experiment in all cases: DTP human tumour cell line panel, 384-well format
# A549 NSCLC = system: A549 NSCLC
# ACHN renal = system: ACHN renal
# BT-549 breast = system: BT-549 breast
# CAKI-1 renal = system: CAKI-1 renal
# CCRF-CEM leukemia = system: CCRF-CEM leukemia
# DU-145 prostate = system: DU-145 prostate
# HCT-116 colon = system: HCT-116 colon
# HCT-15 colon = system: HCT-15 colon
# HL-60(TB) leukemia = system: HL-60(TB) leukemia
# HOP-62 NSCLC = system: HOP-62 NSCLC
# HOP-92 NSCLC = system: HOP-92 NSCLC
# K-562 leukemia = system: K-562 leukemia
# LOX IMVI melanoma = system: LOX IMVI melanoma
# MALME-3M melanoma = system: MALME-3M melanoma
# MCF7 breast = system: MCF7 breast
# MDA-MB-468 breast = system: MDA-MB-468 breast
# MOLT-4 leukemia = system: MOLT-4 leukemia
# NCI-H226 lung = system: NCI-H226 lung
# NCI-H23 lung = system: NCI-H23 lung
# NCI-H322M lung = system: NCI-H322M lung
# NCI-H460 NSCLC = system: NCI-H460 NSCLC
# NCI-H522 lung = system: NCI-H522 lung
# NCI/ADR-RES ovarian = system: NCI/ADR-RES ovarian
# OVCAR-3 ovarian = system: OVCAR-3 ovarian
# OVCAR-4 ovarian = system: OVCAR-4 ovarian
# OVCAR-5 ovarian = system: OVCAR-5 ovarian
# OVCAR-8 ovarian = system: OVCAR-8 ovarian
# PC-3 prostate = system: PC-3 prostate
# RPMI-8226 leukemia = system: RPMI-8226 leukemia
# RXF 393 renal = system: RXF 393 renal
# SF-295 CNS = system: SF-295 CNS
# SK-MEL-28 melanoma = system: SK-MEL-28 melanoma
# SK-MEL-5 melanoma = system: SK-MEL-5 melanoma
# SN12C renal = system: SN12C renal
# SNB-19 CNS = system: SNB-19 CNS
# SR leukemia = system: SR leukemia
# SW-620 colon = system: SW-620 colon
# T-47D breast = system: T-47D breast
# TK-10 renal = system: TK-10 renal
# UACC-257 melanoma = system: UACC-257 melanoma
# UO-31 renal = system: UO-31 renal
# 786-0 renal = system: 786-0 renal
# A498 renal = system: A498 renal
# COLO 205 colon = system: COLO 205 colon
# EKVX NSCLC = system: EKVX NSCLC
# HCC-2998 colon = system: HCC-2998 colon
# HS 578T breast = system: HS 578T breast
# HT29 colon = system: HT29 colon
# IGROV1 ovarian = system: IGROV1 ovarian
# KM12 colon = system: KM12 colon
# M14 melanoma = system: M14 melanoma
# MDA-MB-231 breast = system: MDA-MB-231 breast
# SF-268 CNS = system: SF-268 CNS
# SF-539 CNS = system: SF-539 CNS
# SK-OV-3 ovarian = system: SK-OV-3 ovarian
# SNB-75 CNS = system: SNB-75 CNS
# U251 glioblastoma = system: U251 glioblastoma
# UACC-62 melanoma = system: UACC-62 melanoma
smiles,measurement,setting,value
Cc1nc(-c2nc(-c3ccc(OC(F)(F)F)cc3)no2)nn1Cc1cccc(N2CCC(S(C)(=O)=O)CC2)c1,GI50,A549 NSCLC,2.61 µM
same,TGI,A549 NSCLC,33.9 µM
same,GI50,ACHN renal,10.4 µM
same,TGI,ACHN renal,34.6 µM
same,GI50,BT-549 breast,2.1 µM
same,TGI,BT-549 breast,26.2 µM
same,GI50,CAKI-1 renal,4.66 µM
same,TGI,CAKI-1 renal,71.1 µM
same,GI50,CCRF-CEM leukemia,< 0.01 µM
same,TGI,CCRF-CEM leukemia,3.59 µM
same,GI50,DU-145 prostate,29.4 µM
same,TGI,DU-145 prostate,> 100 µM
same,GI50,HCT-116 colon,< 0.01 µM
same,TGI,HCT-116 colon,2.82 µM
same,GI50,HCT-15 colon,6.19 µM
same,TGI,HCT-15 colon,> 100 µM
same,GI50,HL-60(TB) leukemia,0.156 µM
same,TGI,HL-60(TB) leukemia,0.29 µM
same,GI50,HOP-62 NSCLC,< 0.01 µM
same,TGI,HOP-62 NSCLC,20.6 µM
same,GI50,HOP-92 NSCLC,0.567 µM
same,TGI,HOP-92 NSCLC,46.2 µM
same,GI50,K-562 leukemia,< 0.01 µM
same,TGI,K-562 leukemia,> 100 µM
same,GI50,LOX IMVI melanoma,0.0479 µM
same,TGI,LOX IMVI melanoma,> 100 µM
same,GI50,MALME-3M melanoma,23.6 µM
same,TGI,MALME-3M melanoma,56.6 µM
same,GI50,MCF7 breast,0.221 µM
same,TGI,MCF7 breast,50.8 µM
same,GI50,MDA-MB-468 breast,< 0.01 µM
same,TGI,MDA-MB-468 breast,< 0.01 µM
same,GI50,MOLT-4 leukemia,0.0271 µM
same,TGI,MOLT-4 leukemia,0.208 µM
same,GI50,NCI-H226 lung,0.664 µM
same,TGI,NCI-H226 lung,39.5 µM
same,GI50,NCI-H23 lung,< 0.01 µM
same,TGI,NCI-H23 lung,< 0.01 µM
same,GI50,NCI-H322M lung,0.0149 µM
same,TGI,NCI-H322M lung,16.4 µM
same,GI50,NCI-H460 NSCLC,< 0.01 µM
same,TGI,NCI-H460 NSCLC,0.0183 µM
same,GI50,NCI-H522 lung,1.08 µM
same,TGI,NCI-H522 lung,17.6 µM
same,GI50,NCI/ADR-RES ovarian,< 0.01 µM
same,TGI,NCI/ADR-RES ovarian,0.0515 µM
same,GI50,OVCAR-3 ovarian,5.09 µM
same,TGI,OVCAR-3 ovarian,> 100 µM
same,GI50,OVCAR-4 ovarian,0.292 µM
same,TGI,OVCAR-4 ovarian,24.8 µM
same,GI50,OVCAR-5 ovarian,86 µM
same,TGI,OVCAR-5 ovarian,> 100 µM
same,GI50,OVCAR-8 ovarian,< 0.01 µM
same,TGI,OVCAR-8 ovarian,19.6 µM
same,GI50,PC-3 prostate,17.3 µM
same,TGI,PC-3 prostate,> 100 µM
same,GI50,RPMI-8226 leukemia,< 0.01 µM
same,TGI,RPMI-8226 leukemia,1.03 µM
same,GI50,RXF 393 renal,< 0.01 µM
same,TGI,RXF 393 renal,< 0.01 µM
same,GI50,SF-295 CNS,0.0932 µM
same,TGI,SF-295 CNS,37 µM
same,GI50,SK-MEL-28 melanoma,28 µM
same,TGI,SK-MEL-28 melanoma,80.9 µM
same,GI50,SK-MEL-5 melanoma,< 0.01 µM
same,TGI,SK-MEL-5 melanoma,11.8 µM
same,GI50,SN12C renal,20.4 µM
same,TGI,SN12C renal,> 100 µM
same,GI50,SNB-19 CNS,47.2 µM
same,TGI,SNB-19 CNS,> 100 µM
same,GI50,SR leukemia,< 0.01 µM
same,TGI,SR leukemia,< 0.01 µM
same,GI50,SW-620 colon,11.5 µM
same,TGI,SW-620 colon,> 100 µM
same,GI50,T-47D breast,< 0.01 µM
same,TGI,T-47D breast,23.4 µM
same,GI50,TK-10 renal,8.15 µM
same,TGI,TK-10 renal,78.8 µM
same,GI50,UACC-257 melanoma,0.0565 µM
same,TGI,UACC-257 melanoma,0.827 µM
same,GI50,UO-31 renal,7.92 µM
same,TGI,UO-31 renal,36.6 µM
Cc1cc(Nc2ncc3c(n2)N(C)C(=O)N(c2cc(NC(=O)c4cccc(C(F)(F)F)c4)ccc2C)C3)n(C)n1,GI50,786-0 renal,0.0401 µM
same,TGI,786-0 renal,0.302 µM
same,GI50,A498 renal,0.0142 µM
same,TGI,A498 renal,0.105 µM
same,GI50,A549 NSCLC,0.0179 µM
same,TGI,A549 NSCLC,0.162 µM
same,GI50,BT-549 breast,0.0199 µM
same,TGI,BT-549 breast,0.0733 µM
same,GI50,CAKI-1 renal,< 0.01 µM
same,TGI,CAKI-1 renal,0.0205 µM
same,GI50,CCRF-CEM leukemia,1.34 µM
same,TGI,CCRF-CEM leukemia,3.42 µM
same,GI50,COLO 205 colon,< 0.01 µM
same,TGI,COLO 205 colon,0.128 µM
same,GI50,EKVX NSCLC,0.0408 µM
same,TGI,EKVX NSCLC,0.305 µM
same,GI50,HCC-2998 colon,0.0458 µM
same,TGI,HCC-2998 colon,1.09 µM
same,GI50,HCT-116 colon,0.0272 µM
same,TGI,HCT-116 colon,0.147 µM
same,GI50,HCT-15 colon,0.224 µM
same,TGI,HCT-15 colon,1.39 µM
same,GI50,HL-60(TB) leukemia,0.0216 µM
same,TGI,HL-60(TB) leukemia,0.107 µM
same,GI50,HOP-62 NSCLC,0.0876 µM
same,TGI,HOP-62 NSCLC,0.534 µM
same,GI50,HOP-92 NSCLC,0.0173 µM
same,TGI,HOP-92 NSCLC,0.0746 µM
same,GI50,HS 578T breast,0.0156 µM
same,TGI,HS 578T breast,0.0543 µM
same,GI50,HT29 colon,0.0164 µM
same,TGI,HT29 colon,0.312 µM
same,GI50,IGROV1 ovarian,< 0.01 µM
same,TGI,IGROV1 ovarian,0.0346 µM
same,GI50,K-562 leukemia,< 0.01 µM
same,GI50,KM12 colon,0.513 µM
same,TGI,KM12 colon,> 100 µM
same,GI50,LOX IMVI melanoma,< 0.01 µM
same,TGI,LOX IMVI melanoma,0.011 µM
same,GI50,M14 melanoma,< 0.01 µM
same,TGI,M14 melanoma,0.0288 µM
same,GI50,MALME-3M melanoma,< 0.01 µM
same,GI50,MCF7 breast,0.88 µM
same,TGI,MCF7 breast,> 100 µM
same,GI50,MDA-MB-231 breast,0.0113 µM
same,TGI,MDA-MB-231 breast,0.0871 µM
same,GI50,MDA-MB-468 breast,0.0251 µM
same,TGI,MDA-MB-468 breast,0.0982 µM
same,GI50,MOLT-4 leukemia,0.0221 µM
same,TGI,MOLT-4 leukemia,1.36 µM
same,GI50,NCI-H23 lung,0.0244 µM
same,TGI,NCI-H23 lung,0.189 µM
same,GI50,NCI-H322M lung,0.022 µM
same,TGI,NCI-H322M lung,0.137 µM
same,GI50,NCI-H460 NSCLC,0.052 µM
same,TGI,NCI-H460 NSCLC,> 100 µM
same,GI50,NCI-H522 lung,< 0.01 µM
same,TGI,NCI-H522 lung,0.0313 µM
same,GI50,NCI/ADR-RES ovarian,1.65 µM
same,TGI,NCI/ADR-RES ovarian,3.24 µM
same,GI50,OVCAR-3 ovarian,0.0243 µM
same,TGI,OVCAR-3 ovarian,0.198 µM
same,GI50,OVCAR-5 ovarian,0.0342 µM
same,TGI,OVCAR-5 ovarian,0.254 µM
same,GI50,OVCAR-8 ovarian,0.0341 µM
same,TGI,OVCAR-8 ovarian,0.337 µM
same,GI50,PC-3 prostate,4.25 µM
same,TGI,PC-3 prostate,> 100 µM
same,GI50,RPMI-8226 leukemia,0.286 µM
same,TGI,RPMI-8226 leukemia,1.79 µM
same,GI50,RXF 393 renal,< 0.01 µM
same,TGI,RXF 393 renal,0.0871 µM
same,GI50,SF-268 CNS,< 0.01 µM
same,TGI,SF-268 CNS,0.0136 µM
same,GI50,SF-295 CNS,1.42 µM
same,TGI,SF-295 CNS,> 100 µM
same,GI50,SF-539 CNS,0.0726 µM
same,TGI,SF-539 CNS,0.577 µM
same,GI50,SK-MEL-28 melanoma,0.0162 µM
same,TGI,SK-MEL-28 melanoma,0.083 µM
same,GI50,SK-MEL-5 melanoma,0.0323 µM
same,TGI,SK-MEL-5 melanoma,8.42 µM
same,GI50,SK-OV-3 ovarian,< 0.01 µM
same,TGI,SK-OV-3 ovarian,0.0429 µM
same,GI50,SN12C renal,0.0111 µM
same,TGI,SN12C renal,0.0593 µM
same,GI50,SNB-19 CNS,0.199 µM
same,TGI,SNB-19 CNS,> 100 µM
same,GI50,SNB-75 CNS,0.0189 µM
same,TGI,SNB-75 CNS,0.0779 µM
same,GI50,SW-620 colon,0.0699 µM
same,TGI,SW-620 colon,1.28 µM
same,GI50,T-47D breast,0.0257 µM
same,TGI,T-47D breast,0.0751 µM
same,GI50,TK-10 renal,0.0288 µM
same,TGI,TK-10 renal,0.12 µM
same,GI50,U251 glioblastoma,0.0258 µM
same,TGI,U251 glioblastoma,1.2 µM
same,GI50,UACC-257 melanoma,0.0338 µM
same,TGI,UACC-257 melanoma,0.311 µM
same,GI50,UACC-62 melanoma,< 0.01 µM
same,TGI,UACC-62 melanoma,0.015 µM
same,GI50,UO-31 renal,0.134 µM
same,TGI,UO-31 renal,0.312 µM
